From patent publication US12568961B2, “Multi-layer true spherical chitosan encapsulation of absolute (essential) oils for use in pesticidal activity” (GroPro Corporation, priority 2023, dated 2026)
Marks after values point to notes of the source that are not given here.

Key:
Black Sigatoka = assay: field trials against black Sigatoka in bananas; settings: applied as tank mixes with tea tree oil
Description: Tea tree oil was used in disclosed experiments and trials as an 54 mulsifiable concentrated formulation. For field trials in bananas, tea tree oil was applied similarly to conventional synthetic fungicides, with mineral oil, surfactants, and/or just water. The following fungicides, registered for use against black sigatoka in bananas, were tested for comparison: azoxystrobin (Bankit 25 SC), trifloxystrobin (Flint, Tega 50 WG), difenoconazole (Score, Sico 25 EC), mancozeb (43 SC Duwest 80 WP), flutriafol (Impact, 125 SC) and tridemorph (Calixin 86 OL).

tomato seedlings = assay: phytotoxicity of geraniol, drenching treatment of potted tomato seedlings; format: in vivo; settings: 1 week after treatment; for Extent of phytotoxicity (0-5) / Phytotoxicity symptom: 50 ml drench, tomato
From the text: Sterilized soil was uniformly mixed, 300 g thereof was then placed in each pot, and tomato seedlings not infected with root-knot nematodes were transplanted thereto.

[1] = system: Ae. aegypti, Culex species mosquitoes, Anopheles species mosquitoes; assay: mosquitos and midge adult activity; format: in vivo; settings: used at 500 to 8,000 ppm
[2] = cited from earlier work
[3] = system: root-knot nematodes (Meloidogyne spp.); assay: nematocidal activity on hatched root-knot nematodes in Petri dish; settings: 15 nematodes
Description: The tomato roots infected with root-knot nematodes were washed with running water and were then cut to a size of about 1 cm, after which 50 g of the cut roots were placed in a 500 ml round-bottom flask containing 200 ml of 0.5% sodium hypochloride (NaOCl), stopped with a rubber stopper, and shaken vigorously for 3 min to sterilize the roots and at the same time burst the egg bag. Thereafter, the solution was passed through a sieve in which 200 mesh was superimposed on 500 mesh, and washed with distilled water, so the eggs of the root-knot nematodes from which the NaOCl solution was removed were recovered.
Next, the eggs of the root-knot nematodes thus recovered were surface-sterilized with 0.5% NaOCl for 10 min, washed thoroughly with sterile distilled water, placed in a phosphate buffer (1%) containing sterilized normal saline, and hatched in an incubator at 25° C.
Thereafter, each mixed solution was diluted to 2000 ppm, 2 to 3 ml thereof was poured into a Petri dish, after which 15 hatched root-knot nematodes were placed in the Petri dish, and nematocidal activity was measured and the results thereof are shown in Table 1 below.
The number of root-knot nematodes used for the experiment on the number of killed root-knot nematodes was 15 at each dilution factor.

[4] = system: root-knot nematodes (Meloidogyne spp.); assay: nematocidal activity assessment of plant-derived materials in development; settings: geraniol used at 500 to 4,000 ppm
multiple insects = assay: insecticidal activity on multiple insects (oxymatrine); format: in vivo; settings: used at 500 to 6,000 ppm

Molecule: CON=C(C(=O)OC)c1ccccc1CON=C(C)c1cccc(C(F)(F)F)c1 [trifloxystrobin]
- control of Black Sigatoka (Black Sigatoka): effectively controlled

Molecule: CC(C)=CCC/C(C)=C/CO [Geraniol, 3,7-dimethyl-2,6-octadien-1-ol]
- concentrations causing phytotoxicity in tomato seedlings (tomato seedlings; drench): ≥ 4,000 ppm
- concentrations with no effect on tomato seedlings (tomato seedlings; drench): ≤ 3,000 ppm
- Extent of phytotoxicity (0-5) (tomato seedlings; geraniol 100 ppm): 0
- Phytotoxicity symptom (tomato seedlings; geraniol 100 ppm): No
- Extent of phytotoxicity (0-5) (tomato seedlings; geraniol 200 ppm): 0
- Phytotoxicity symptom (tomato seedlings; geraniol 200 ppm): No
- Extent of phytotoxicity (0-5) (tomato seedlings; geraniol 330 ppm): 0
- Phytotoxicity symptom (tomato seedlings; geraniol 330 ppm): No
- Extent of phytotoxicity (0-5) (tomato seedlings; geraniol 500 ppm): 0
- Phytotoxicity symptom (tomato seedlings; geraniol 500 ppm): No
- Extent of phytotoxicity (0-5) (tomato seedlings; geraniol 1,000 ppm): 0
- Phytotoxicity symptom (tomato seedlings; geraniol 1,000 ppm): No
- Extent of phytotoxicity (0-5) (tomato seedlings; geraniol 2,000 ppm): 0
- Phytotoxicity symptom (tomato seedlings; geraniol 2,000 ppm): No
- Extent of phytotoxicity (0-5) (tomato seedlings; geraniol 3,000 ppm): 0
- Phytotoxicity symptom (tomato seedlings; geraniol 3,000 ppm): No
- Extent of phytotoxicity (0-5) (tomato seedlings; geraniol 4,000 ppm): 5
- Phytotoxicity symptom (tomato seedlings; geraniol 4,000 ppm): Withered
- Extent of phytotoxicity (0-5) (tomato seedlings; geraniol 5,000 ppm): 5
- Phytotoxicity symptom (tomato seedlings; geraniol 5,000 ppm): Withered
- Extent of phytotoxicity (0-5) (tomato seedlings; geraniol 10,000 ppm): 5
- Phytotoxicity symptom (tomato seedlings; geraniol 10,000 ppm): Withered
- Extent of phytotoxicity (0-5) (tomato seedlings; geraniol 20,000 ppm): 5
- Phytotoxicity symptom (tomato seedlings; geraniol 20,000 ppm): Withered
- mosquito and midge control [1]: superior mosquito and midge control was demonstrated without plant phytotoxicity or water toxicology
- solubility in water [2]: insoluble in water
- number of killed root-knot nematodes ([3]; 2000 ppm, 1 day): 15^a
- number of killed root-knot nematodes ([3]; geraniol 2,000 ppm, 1 day): 15
- nematocidal control [4]: superior nematocidal control was demonstrated without plant phytotoxicity

Molecule: pyrethrin
- number of killed root-knot nematodes ([3]; 2000 ppm, 1 day): 5
- number of killed root-knot nematodes ([3]; 2000 ppm, 2 days): 6
- number of killed root-knot nematodes ([3]; 2000 ppm, 3 days): 11

Molecule: CC1COC(Cn2cncn2)(c2ccc(Oc3ccc(Cl)cc3)cc2Cl)O1 (centres unmarked) [difenoconazole]
- control of Black Sigatoka (Black Sigatoka): effectively controlled

Molecule: C/C=C(\C)C(=O)O[C@H]1C[C@@H](OC(C)=O)[C@@]2(C(=O)OC)CO[C@H]3[C@@H](O)[C@@](C)([C@]45O[C@@]4(C)[C@H]4C[C@@H]5O[C@@H]5OC=C[C@@]54O)[C@H]4[C@]1(CO[C@]4(O)C(=O)OC)[C@@H]32 [Azadirachtin, azadirachtin]
- number of killed root-knot nematodes ([3]; 2000 ppm, 1 day): 7
- number of killed root-knot nematodes ([3]; 2000 ppm, 2 days): 8
- number of killed root-knot nematodes ([3]; 2000 ppm, 3 days): 10

Molecule: O=C1CCC[C@@H]2[C@H]3CCC[N+]4([O-])CCC[C@@H](CN12)[C@@H]34 (some centres unmarked) [Oxymatrine, oxymatrine]
- insecticidal control (multiple insects): superior insecticidal control was demonstrated without plant phytotoxicity
